The text below walks through data of ChEMBL document CHEMBL5137114, “Discovery of IHMT-MST1-58 as a Novel, Potent, and Selective MST1 Inhibitor for the Treatment of Type 1/2 Diabetes” (J Med Chem, 2022).

The test system of data set [1] is Mus musculus. Nature of the data set: Antidiabetic activity against 12 hrs fasted high fat diet-STZ-induced C57BL/6J mouse model of type 2 diabetes assessed as decrease in fasting blood glucose level at 50 mg/kg, po qd measured immediately (reference value: 20.3 mmol/L). The data set is classed as functional.
Data set [2] is described as follows: Oral bioavailability in mouse at 10 mg/kg measured up to 24 hrs by LC-MS/MS analysis. The settings on record: in vivo. The format is ADME, organism-based.
Data set [3] is described as follows: AUC (0 to t) in mouse at 1 mg/kg, iv measured up to 12 hrs by LC-MS/MS analysis. To be noted: in vivo. The arrangement: time < 12 hrs, dose 1 mg/kg, route iv. The data set is classed as ADME, organism-based.
A short description of data set [4]: Cmax in mouse at 1 mg/kg, iv measured up to 12 hrs by LC-MS/MS analysis. The format is ADME, organism-based. Details: time < 12 hrs, dose 1 mg/kg, route iv. To be noted: in vivo.
A further data set has as its system RAW264.7. Nature of the data set: Inhibition of MST1 in mouse RAW264.7 cells assessed as reduction in H2O2-stimulated MOB1 phosphorylation at T35 residue preincubated for 2 hrs followed by H2O2 addition for 30 mins by Western blotting analysis. The format is cell-based. To be noted: dose 0.1-10 µM, time 2.5 hrs, DDE = dose-dependent effect.
Data set [5] concerns Mus musculus. The data set is described as follows: Antidiabetic activity against 8 hrs fasted multi low dose STZ-induced C57BL/6J mouse model of type 1 diabetes assessed as decrease in fasting blood glucose level at 50 mg/kg, po administered measured immediately (reference value: 19.3 mmol/L). The format is functional.
The subject of the next data set is INS1. Nature of the data set: Protection against TNF-alpha-induced damage in rat INS1 cells assessed as increase in cell survival at 0.03 to 0.3 uM incubated for 48 hrs by Cell Titer-Glo assay. The format is functional, cell-based. To be noted: dose 0.03-0.3 µM.
Data set [6] has as its system Mus musculus. Nature of the data set: Antidiabetic activity in 12 to 14 hrs fasted high fat diet-STZ-induced C57BL/6J mouse model of type 2 diabetes assessed as reduction on blood glucose at 50 mg/kg, po qd pretreated with compound followed by glucose challenge measured upto 180 mins by IPGTT assay. The data set is classed as functional, organism-based.
Data set [7] relates to Mus musculus. The data set is described as follows: Antidiabetic activity against multi low dose STZ-induced C57BL/6J mouse model of type 1 diabetes assessed as food intake at 50 mg/kg, po administered for 78 to 79 days in presence of metformin (reference value: 4.7 g/day). The data set is classed as functional. The settings on record: time 78-79 day.

Each structure is given as a SMILES string. Calls of active or inactive are those of the source. The rule behind the calls is not given here.

With `Cc1ccccc1C1C(=O)N(C)c2cnc(Nc3ccc(S(N)(=O)=O)cc3)nc2N1C` (centres undefined), the Activity in the data set on Mus musculus [1] came to 20.2 mmol/L; with Mus musculus [5], 19.4 mmol/L; with Mus musculus [7], 4.1 g/day. The bioavailability in [2] turned out to be 111%. The molecule further came in with an AUC(0-t) at 12 h in [3] of 501 ng·h/mL. For the same molecule, the peak level in data set [4] (Cmax) was 1240 ng/mL. Further, the inhibition result in the data set on RAW264.7 is “Dde”. The outcome in the data set with INS1 and in the data set with Mus musculus [6] was Active.
